Converted amounts (≈) assume the structure as drawn. Structures can show the parent of a compound that is named as a salt. Where two headings read alike, the source gives them in different places.
Key:
[1] = system: various kinds of E. coli; conditions: cited from earlier work
[2] = system: Klebsiella; conditions: cited from earlier work
[3] = Serum (blood) level in rats; format: in vivo; conditions: rat, average from 3 rats; for concentration at 0.5 h: 30 min.; for concentration at 1 h: 60 min.; for concentration at 2 h: 120 min.
Description: For the determination of the serum level in rats, typical representatives of the penicillins according to the invention were administered at a dosage of 10 mg/kg subcutaneously or 100 mg/kg per os to groups of 3 female FW 49 rats (weight 100 to 130 gm) each. Blood tests taken from the heart were worked up, and the obtained sera were tested by the cylinder test-agar diffusion method on plates with sarcina lutea ATCC 15957. The samples were compared with standard curves.

[4] = system: E. coli ATCC 11775; assay: Influence of the size of the inoculum on the MIC-values; format: cell-based; conditions: Escherichia coli
Description: (§1) For the penicillins C and H, which are typical representatives for this invention, the influence of the size of the inoculum on the MIC-values against ps. aerug. hamburg. and E. coli ATCC 11775 in the microtiter system was determined. Thereby 3 different sizes of inoculum (3.3×10^6, 3.3×10^4 and 3.3×10^2 in E. coli and 4.7×10^6, 4.7×10^4 and 4.7×10^2 in pseudomonas) were used. The reference system was again penicillin Q.

[5] = system: pseud. aerug. hamburg.; assay: as above; format: cell-based; conditions: Pseudomonas aeruginosa
Description: as §1

[6] = system: Staphylococcus aureus SG 511; assay: MIC, serial dilution test in the microtiter system; format: cell-based; conditions: SG511, 18 h, Staph. Aureus SG 511, 37° C., 18-20 hours
Description: (§2) The tests were performed according to the method of the serial dilution test in the microtiter system. The effect of the substances on bacteriostasis was examined in a fluid medium. The activity on bacteriostatis was examined at the following concentrations:
(§3) 10 gm of peptone, 8 gm of meat extract-oxoid, 3 gm of sodium chloride, 2 gm of sec. sodium phosphate were diluted with distilled water to 1000 ml (pH 7.2-7.4). Only in the test against streptococci 1% of glucose was added. The age of the primary cultures was about 20 hours. The standardizations of the pathogen suspension was effected by using a photometer according to "Eppendorf" (test tube diameter 14 mm, filter 546 nm) with the aid of the turbidity of a comparison suspension consisting of barium sulfate, this suspension being prepared by addition of 3.0 ml of 1% barium chloride solution to 97 ml of 1% sulfuric acid. After the standardization, streptococcus aronson were further diluted to a concentration of 1:15 and the other germs to a concentration of 1:1500 by menas of a sodium chloride solution.
(§4) 16 mg of the test substance were put into a 10 ml measuring flask and filled up to the mark with the solvent. The further dilution series was standardized with distilled water or the respective solvent.
(§5) The cavities of the microtiter plates were filled with 0.2 ml of nutrient medium. Then, 0.01 ml of the corresponding test substance dilution was added and inoculated with 0.01 ml of the standardized suspension. The bacteria were incubated at 37° C. for 18-20 hours. Control tests merely using the solvent were carried out simultaneously.
(§6) The measurement was carried out macroscopically to determine the minimal inhibitory (threshold) concentration, i.e. the lowest still bacteriostatically effective concentration.
(§7) Staphylococcus aureus SG 511, streptococcus aronson, streptococcus faecalis ATCC 10541, escherichia coli ATCC 9637, 11 775 and escherichia coli 12593/74 (β-lactamase carrier), pseudomonas aeruginosa hamburgensis and ATCC 10145, serratia marcescens ATCC 13 880, klebsiella pneumoniae ATCC 10 031 and 272 and proteus mirabilis hamburgensis.

[7] = system: klebsiella pneumoniae ATCC 10 031; assay: MIC, serial dilution test in the microtiter system; format: cell-based; conditions: 18 h, klebs pneum ATCC 10031, 37° C., 18-20 hours
Description: as §2, §3, §4, §5, §6, §7

[8] = system: streptococcus aronson; assay: MIC, serial dilution test in the microtiter system; format: cell-based; conditions: 18 h, strept. aronson, 1% glucose added, 37° C., 18-20 hours
Description: as §2, §3, §4, §5, §6, §7

[9] = system: escherichia coli 12593/74 (β-lactamase carrier); assay: MIC, serial dilution test in the microtiter system; format: cell-based; conditions: 18 h, E. coli 12593/74 (β-lactamase carrier), 37° C., 18-20 hours
Description: as §2, §3, §4, §5, §6, §7

[10] = system: serratia marcescens ATCC 13 880; assay: MIC, serial dilution test in the microtiter system; format: cell-based; conditions: ATCC13, 18 h, serrat marcesc., 37° C., 18-20 hours
Description: as §2, §3, §4, §5, §6, §7

[11] = system: pseudomonas aeruginosa hamburgensis; assay: MIC, serial dilution test in the microtiter system; format: cell-based; conditions: 18 h, pseud. aerug. hamb., 37° C., 18-20 hours
Description: as §2, §3, §4, §5, §6, §7

[12] = system: pseudomonas aeruginosa ATCC 10145; assay: MIC, serial dilution test in the microtiter system; format: cell-based; conditions: ATCC10145, 18 h, pseud. aerug. ATCC 10145, 37° C., 18-20 hours
Description: as §2, §3, §4, §5, §6, §7

[13] = system: streptococcus faecalis ATCC 10541; assay: MIC, serial dilution test in the microtiter system; format: cell-based; conditions: Enterococcus faecalis, ATCC10541, 18 h; strept. faecal.; 37° C., 18-20 hours
Description: as §2, §3, §4, §5, §6, §7

[14] = system: escherichia coli ATCC 9637; assay: MIC, serial dilution test in the microtiter system; format: cell-based; conditions: ATCC9637, 18 h, E. coli ATCC 9637, 37° C., 18-20 hours
Description: as §2, §3, §4, §5, §6, §7

[15] = system: klebsiella pneumoniae 272; assay: MIC, serial dilution test in the microtiter system; format: cell-based; conditions: 18 h, klebs pneum. 272, 37° C., 18-20 hours
Description: as §2, §3, §4, §5, §6, §7

[16] = system: proteus mirabilis hamburgensis; assay: MIC, serial dilution test in the microtiter system; format: cell-based; conditions: 18 h, prot. mirabilis, 37° C., 18-20 hours
Description: as §2, §3, §4, §5, §6, §7

[17] = system: escherichia coli ATCC 11775; assay: MIC, serial dilution test in the microtiter system; format: cell-based; conditions: ATCC11775, 18 h, E. coli ATCC 11775, 37° C., 18-20 hours
Description: as §2, §3, §4, §5, §6, §7

[18] = system: E. coli ATCC 11775; assay: In vivo activity against experimental infection in mice; parameters: species or system mouse (NMRI); conditions: Escherichia coli, 168 h, 7 days observation, read-out: ED50 (dose at which 50% of the animals survived)
Description: (§8) A number of compounds of this invention were tested in vivo in mice against experimental infections. Bacteria E. coli ATCC 11775 and pseudomonas aeruginosa walter were used as pathogens. An intraperitoneal infection with 0.2 ml of a 5% mucin suspension of the bacteria was induced. This corresponds to about 2×10^6 germs E. coli and 8×10^5 germs pseudomonas/mouse. Female NMRI mice were divided into groups of 10 animals each, two control groups remained untreated, the remaining groups were treated with different doses of the respective penicillins for the determination of the ED50 (dose at which 50% of the animals survived). The groups with the E. coli infection were treated with the substance 3 times on the first day (1, 4 and 7 hours post-infectionem) and for 2 days thereafter twice a day. The groups with the pseudomonas infection were treated with the substance applied 6 times on the first day (1, 3, 6, 9, 12, and 15 hours post-infectionem) and for 2 days thereafter twice a day. The observation time was in both cases 7 days.

[19] = system: pseudomonas aeruginosa walter; assay: as above; parameters: species or system mouse (NMRI); conditions: sc, 168 h, subcutaneous, 7 days observation, read-out: ED50 (dose at which 50% of the animals survived)
Description: as §8

[20] = system: Pseudomonas; conditions: in vivo as well as in vitro; cited from earlier work
[21] = ATCC11775, inoculum 3.3 × 10^2 germs/ml
[22] = ATCC11775, inoculum 3.3 × 10^4 germs/ml
[23] = ATCC11775, inoculum 3.3 × 10^6 germs/ml

## CC1(C)S[C@@H]2[C@H](NC(=O)[C@H](NC(=O)N3CCNC3=O)c3ccccc3)C(=O)N2[C@H]1C(=O)O [Azlocillin, 6-{D-α-[(2-oxo-imidazolidine-1-yl)carbonylamino]-4-phenyl-acetamino}-pencillanic acid sodium salt]
[1]
  activity against various kinds of E. coli: only a moderate activity
[2]
  activity against Klebsiella: only a moderate activity

## CC1(C)S[C@@H]2[C@H](NC(=O)[C@H](NC(=O)Nc3cnc(C4CC4)nc3O)c3ccc(O)cc3)C(=O)N2[C@H]1C(=O)O [C, D-α-[3-(2-cyclopropyl-4-hydroxy-5-pyrimidyl)-ureido]-p-hdroxybenzyl-penicillin sodium]
[3]; oral 100 mg/kg
  concentration at 0.5 h: 3300 ng/mL
  concentration at 1 h: 4800 ng/mL
  concentration at 2 h: 1000 ng/mL
[3]; sc, subcutaneous 10 mg/kg
  concentration at 0.5 h: 5100 ng/mL
  concentration at 1 h: 6800 ng/mL
  concentration at 2 h: 400 ng/mL
[4]; [21]
  MIC: 2.5 µg/mL
[4]; [22]
  MIC: 2.5 µg/mL
[4]; [23]
  MIC: 2.5 µg/mL
[5]; inoculum 4.7 × 10^2 germs/ml
  MIC: 2.5 µg/mL
[5]; inoculum 4.7 × 10^4 germs/ml
  MIC: 5 µg/mL
[5]; inoculum 4.7 × 10^6 germs/ml
  MIC: > 80 µg/mL
[6]
  MIC: 0.3 µg/mL
[7]
  MIC: 40 µg/mL
[8]
  MIC: 0.08 µg/mL
[9]
  MIC: 80 µg/mL
[10]
  MIC: 1.25 µg/mL
[11]
  MIC: 2.5 µg/mL
[12]
  MIC: 1.25 µg/mL
[13]
  MIC: 10 µg/mL
[14]
  MIC: 2.5 µg/mL
[15]
  MIC: 80 µg/mL
[16]
  MIC: 1.25 µg/mL
[17]
  MIC: 1.25 µg/mL
[18]; ATCC11775, po, peroral
  ED50: 30 mg/kg
[18]; ATCC11775, sc, subcutaneous
  ED50: 1.5 mg/kg
[19]
  ED50: 7 mg/kg

## CC1(C)S[C@@H]2[C@H](NC(=O)C(C(=O)O)c3ccccc3)C(=O)N2[C@H]1C(=O)O (stereo partly drawn) [Carbenicillin]
[20]
  antipseudomonal activity: only a poor activity

## CC1(C)S[C@@H]2[C@H](NC(=O)[C@H](NC(=O)Nc3cncnc3O)c3ccc(O)cc3)C(=O)N2[C@H]1C(=O)O [Compound A, D-α-[3-(4-hydroxy-5-pyrimidyl)-ureido]-p-hydroxybenzylpenicillin sodium]
[3]; oral 100 mg/kg
  concentration at 0.5 h: 9100 ng/mL
  concentration at 1 h: 9600 ng/mL
  concentration at 2 h: 2900 ng/mL
[3]; sc, subcutaneous 10 mg/kg
  concentration at 0.5 h: 9300 ng/mL
  concentration at 1 h: 8600 ng/mL
  concentration at 2 h: 400 ng/mL
[6]
  MIC: 0.3 µg/mL
[7]
  MIC: 80 µg/mL
[8]
  MIC: 0.08 µg/mL
[9]
  MIC: > 80 µg/mL
[10]
  MIC: 5 µg/mL
[11]
  MIC: 5 µg/mL
[12]
  MIC: 2.5 µg/mL
[13]
  MIC: 10 µg/mL
[14]
  MIC: 2.5 µg/mL
[15]
  MIC: 80 µg/mL
[16]
  MIC: 0.6 µg/mL
[17]
  MIC: 2.5 µg/mL
[18]; ATCC11775, po, peroral
  ED50: 50 mg/kg
[18]; ATCC11775, sc, subcutaneous
  ED50: 6 mg/kg
[19]
  ED50: 50 mg/kg

## CC1(C)S[C@@H]2[C@H](NC(=O)[C@H](NC(=O)N3CCNC3=O)c3ccccc3)C(=O)N2[C@H]1C(=O)O [Q, reference compound]
[3]; oral 100 mg/kg
  concentration at 0.5 h: 800 ng/mL
  concentration at 1 h: 600 ng/mL
  concentration at 2 h: 300 ng/mL
[3]; sc, subcutaneous 10 mg/kg
  concentration at 0.5 h: 2800 ng/mL
  concentration at 1 h: 3700 ng/mL
  concentration at 2 h: 400 ng/mL
[4]; [21]
  MIC: 10 µg/mL (≈ 21.7 µM)
[4]; [22]
  MIC: 10 µg/mL (≈ 21.7 µM)
[4]; [23]
  MIC: 10 µg/mL (≈ 21.7 µM)
[5]; inoculum 4.7 × 10^2 germs/ml
  MIC: 5 µg/mL (≈ 10.8 µM)
[5]; inoculum 4.7 × 10^4 germs/ml
  MIC: 10 µg/mL (≈ 21.7 µM)
[5]; inoculum 4.7 × 10^6 germs/ml
  MIC: > 80 µg/mL
[11]
  MIC: 10 µg/mL (≈ 21.7 µM)
[12]
  MIC: 5 µg/mL (≈ 10.8 µM)
[14]
  MIC: 20 µg/mL (≈ 43.3 µM)
[17]
  MIC: 10 µg/mL (≈ 21.7 µM)
[18]; ATCC11775, po, peroral
  ED50: 320 mg/kg
[18]; ATCC11775, sc, subcutaneous
  ED50: 35 mg/kg
[19]
  ED50: 110 mg/kg

## CC1(C)S[C@@H]2[C@H](NC(=O)C(c3ccccc3)S(=O)(=O)O)C(=O)N2[C@H]1C(=O)O (stereo partly drawn) [Sulbenicillin]
[20]
  antipseudomonal activity: only a poor activity

## CC1(C)S[C@@H]2[C@H](NC(=O)[C@H](C(=O)O)c3ccsc3)C(=O)N2[C@H]1C(=O)O [Ticarcillin]
[20]
  antipseudomonal activity: only a poor activity
